Assay results as given in patent US9833455B2, “Preparation and methods of use for ortho-aryl 5-membered heteroaryl-carboxamide containing multi-targeted kinase inhibitors” (Spacefill Enterprises LLC, priority 2011, dated 2017).

Assays:
Assay in all cases: Nanosyn kinase profiling, % inhibition
Assay type in all cases: biochemical
Details in all cases: panel of 230 kinases
FLT4 = FLT4 (Homo sapiens, UniProt P35916)
Method: (§1) “Inhibiting kinase activity” means to decrease the production of an phosphor-peptide by a particular kinase that can be separated by analytical techniques. For example, a comprehensive platform of kinase, protease, phosphatase and epigenetic assays that utilizes cutting-edge microfluidics and informatics tools to provide accurate and rapid results. Profiling data in this application were determined using these techniques at Nanosyn Inc. IC50 data were provided by Reaction Biology Inc using a P33 radiolabeled kinase assay.
(§2) A total of 15 new inhibitors were designed, prepared, and evaluated against a panel of 29 selected kinases in order to explore the applicability, SAR trends, and the tunability of this scaffold that could be imposed but this unique geometry, Table 21. Inhibitors I-1 to 1-12 all retained the 2-CF3-5-(4-F-phenyl) imidazole-4-carboxamide scaffold previously described (Deitrich, 2010), but explored different Hinge-Gatekeeper Motifs (HGM).
(§3) More modest activity for Aurora-A, FLT-1/4, KDR, KIT, PDGFRs was accompanied by better activity for B-Raf mutant and wild-type forms, Modest inhibition of MEK-1, BTK, c-Met, RET, and RON was also observed. […] Moreover, the observed inhibition of MEK-1 with 1-12 and TYK2 with I-6 represents additional activities against kinases for which no type-II inhibitors have been reported to date. […] To further evaluate the scope of inhibition, I-6 was evaluated against a larger panel of 230 kinases, Table-22.

RON = RON (Homo sapiens, UniProt Q04912)
Chain of RON (Q04912 25-1400): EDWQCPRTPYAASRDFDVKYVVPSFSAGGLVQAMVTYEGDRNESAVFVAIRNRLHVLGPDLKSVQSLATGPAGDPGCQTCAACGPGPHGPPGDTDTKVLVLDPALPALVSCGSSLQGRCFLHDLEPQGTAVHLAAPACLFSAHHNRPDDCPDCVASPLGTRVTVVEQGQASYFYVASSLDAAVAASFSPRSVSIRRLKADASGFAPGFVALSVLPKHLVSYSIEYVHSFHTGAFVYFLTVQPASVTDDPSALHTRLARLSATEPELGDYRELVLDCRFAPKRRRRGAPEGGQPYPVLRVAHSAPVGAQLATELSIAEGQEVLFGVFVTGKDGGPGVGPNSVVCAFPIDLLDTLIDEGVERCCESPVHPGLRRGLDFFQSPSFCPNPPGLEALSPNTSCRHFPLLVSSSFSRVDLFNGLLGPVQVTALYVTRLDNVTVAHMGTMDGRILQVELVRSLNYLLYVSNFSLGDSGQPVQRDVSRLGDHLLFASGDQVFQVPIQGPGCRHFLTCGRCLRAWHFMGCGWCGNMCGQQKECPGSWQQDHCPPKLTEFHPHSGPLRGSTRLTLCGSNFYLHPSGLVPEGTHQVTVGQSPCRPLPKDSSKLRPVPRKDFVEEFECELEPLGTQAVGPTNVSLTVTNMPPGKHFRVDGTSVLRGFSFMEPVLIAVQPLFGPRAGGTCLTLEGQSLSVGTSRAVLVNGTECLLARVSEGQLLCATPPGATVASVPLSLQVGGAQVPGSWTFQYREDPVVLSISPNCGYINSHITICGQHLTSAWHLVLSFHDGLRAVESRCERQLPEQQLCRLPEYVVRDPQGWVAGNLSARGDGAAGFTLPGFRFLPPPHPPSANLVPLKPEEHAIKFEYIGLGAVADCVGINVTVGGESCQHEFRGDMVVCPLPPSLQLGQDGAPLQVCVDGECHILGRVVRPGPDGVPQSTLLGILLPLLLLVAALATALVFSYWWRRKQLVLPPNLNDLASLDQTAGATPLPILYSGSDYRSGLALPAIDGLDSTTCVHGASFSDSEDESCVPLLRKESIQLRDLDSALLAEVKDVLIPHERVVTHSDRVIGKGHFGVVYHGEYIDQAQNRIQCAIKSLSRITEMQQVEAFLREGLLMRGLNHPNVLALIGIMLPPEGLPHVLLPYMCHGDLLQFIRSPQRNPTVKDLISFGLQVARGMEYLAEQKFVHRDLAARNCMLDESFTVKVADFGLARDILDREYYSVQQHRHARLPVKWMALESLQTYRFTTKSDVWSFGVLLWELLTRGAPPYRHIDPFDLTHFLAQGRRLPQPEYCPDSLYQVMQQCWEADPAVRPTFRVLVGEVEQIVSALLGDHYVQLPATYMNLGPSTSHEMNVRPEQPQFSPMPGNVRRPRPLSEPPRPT
Method: as §1, §2, §3

P38-α = P38-α (Homo sapiens, UniProt Q16539)
Chain of P38-α (Q16539 whole entry): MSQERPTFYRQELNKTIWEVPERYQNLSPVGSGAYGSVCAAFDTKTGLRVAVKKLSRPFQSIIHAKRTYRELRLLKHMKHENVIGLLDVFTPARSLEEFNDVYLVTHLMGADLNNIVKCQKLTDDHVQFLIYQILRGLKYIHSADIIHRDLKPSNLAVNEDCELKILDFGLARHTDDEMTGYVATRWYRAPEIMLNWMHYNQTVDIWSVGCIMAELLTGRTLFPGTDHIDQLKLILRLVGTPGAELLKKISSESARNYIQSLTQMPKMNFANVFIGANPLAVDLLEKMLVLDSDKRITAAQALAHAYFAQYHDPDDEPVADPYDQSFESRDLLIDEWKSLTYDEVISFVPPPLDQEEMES
Method: as §1, §2, §3

PDGFR-α = PDGFR-α (Homo sapiens, UniProt P16234)
Method: as §1, §2, §3

MET = MET (Homo sapiens, UniProt P08581)
Method: as §1, §2, §3

PDGFR-β = PDGFR-β (Homo sapiens, UniProt P09619)
Method: as §1, §2, §3

EPH-A5 = EPH-A5 (Homo sapiens, UniProt P54756)
Method: as §1, §3

EPH-A4 = EPH-A4 (Homo sapiens, UniProt P54764)
Method: as §1, §3

MKNK1 = target: T1, MKNK1 (Homo sapiens, UniProt Q9BUB5)
T1 construct: literature Ambit Biosciences
Method: as §1, §3

SIK = SIK (Homo sapiens, UniProt P57059)
Method: as §1, §3

MEK2 = MEK2 (Homo sapiens, UniProt P36507)
Method: as §1, §3

BLK = BLK (Homo sapiens, UniProt P51451)
Method: as §1, §3

HCK = HCK (Homo sapiens, UniProt P08631)
Method: as §1, §3

LOK = LOK (Homo sapiens, UniProt O94804)
Chain of LOK (O94804 whole entry): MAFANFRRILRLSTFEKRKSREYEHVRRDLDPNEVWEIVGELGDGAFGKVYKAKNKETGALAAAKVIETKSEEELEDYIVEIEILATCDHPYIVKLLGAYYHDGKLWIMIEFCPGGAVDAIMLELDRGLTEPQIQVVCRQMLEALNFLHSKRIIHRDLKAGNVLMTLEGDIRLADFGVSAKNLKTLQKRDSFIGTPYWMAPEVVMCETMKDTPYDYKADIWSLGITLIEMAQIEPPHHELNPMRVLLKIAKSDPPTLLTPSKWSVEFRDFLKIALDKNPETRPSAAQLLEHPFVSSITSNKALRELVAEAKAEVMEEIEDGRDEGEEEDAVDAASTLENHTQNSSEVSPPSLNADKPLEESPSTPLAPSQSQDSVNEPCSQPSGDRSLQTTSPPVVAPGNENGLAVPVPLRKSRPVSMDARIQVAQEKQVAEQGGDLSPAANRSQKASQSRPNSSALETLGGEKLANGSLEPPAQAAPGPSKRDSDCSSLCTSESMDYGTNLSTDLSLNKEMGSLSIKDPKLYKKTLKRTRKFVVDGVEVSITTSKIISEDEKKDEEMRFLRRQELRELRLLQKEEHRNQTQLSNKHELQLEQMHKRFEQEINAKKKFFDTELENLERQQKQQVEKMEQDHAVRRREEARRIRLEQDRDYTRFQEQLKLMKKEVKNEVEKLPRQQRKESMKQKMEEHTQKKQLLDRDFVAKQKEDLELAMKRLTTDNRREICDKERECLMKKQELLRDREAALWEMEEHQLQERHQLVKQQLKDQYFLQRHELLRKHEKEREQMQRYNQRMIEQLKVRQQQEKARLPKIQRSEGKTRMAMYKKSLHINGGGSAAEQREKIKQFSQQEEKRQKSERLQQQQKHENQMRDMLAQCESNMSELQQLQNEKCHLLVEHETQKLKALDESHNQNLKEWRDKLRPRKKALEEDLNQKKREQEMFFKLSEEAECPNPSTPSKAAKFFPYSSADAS
Method: as §1, §3

MAP4K2 = MAP4K2 (Homo sapiens, UniProt Q12851)
Method: as §1, §3

LCK = LCK (Homo sapiens, UniProt P06239)
Method: as §1, §3

LYNB = LYNB (Homo sapiens, UniProt P07948)
Method: as §1, §3

SPHK1 = SPHK1 (Homo sapiens, UniProt Q9NYA1)
Chain of SPHK1 (Q9NYA1 whole entry): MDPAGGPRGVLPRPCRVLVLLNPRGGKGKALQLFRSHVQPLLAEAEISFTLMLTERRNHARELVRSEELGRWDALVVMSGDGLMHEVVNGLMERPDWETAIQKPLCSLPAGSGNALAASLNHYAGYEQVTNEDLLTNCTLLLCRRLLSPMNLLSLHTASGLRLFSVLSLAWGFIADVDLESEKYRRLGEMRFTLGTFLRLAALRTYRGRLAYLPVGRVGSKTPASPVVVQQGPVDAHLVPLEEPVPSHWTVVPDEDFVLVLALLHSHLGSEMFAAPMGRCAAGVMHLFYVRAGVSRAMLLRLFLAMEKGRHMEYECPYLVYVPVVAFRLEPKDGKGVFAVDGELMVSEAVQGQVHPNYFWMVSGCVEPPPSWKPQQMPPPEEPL
Method: as §1, §3

MUSK = MUSK (Homo sapiens, UniProt O15146)
Method: as §1, §3

SPHK2 = SPHK2 (Homo sapiens, UniProt Q9NRA0)
Method: as §1, §3

ABL1 = ABL1 (Homo sapiens, UniProt P00519)
Method: as §1, §3

TRKA = TRKA (Homo sapiens, UniProt P04629)
Method: as §1, §3

EPH-A3 = EPH-A3 (Homo sapiens, UniProt P29320)
Method: as §1, §3

PAK1 = PAK1 (Homo sapiens, UniProt Q13153)
Chain of PAK1 (Q13153 whole entry): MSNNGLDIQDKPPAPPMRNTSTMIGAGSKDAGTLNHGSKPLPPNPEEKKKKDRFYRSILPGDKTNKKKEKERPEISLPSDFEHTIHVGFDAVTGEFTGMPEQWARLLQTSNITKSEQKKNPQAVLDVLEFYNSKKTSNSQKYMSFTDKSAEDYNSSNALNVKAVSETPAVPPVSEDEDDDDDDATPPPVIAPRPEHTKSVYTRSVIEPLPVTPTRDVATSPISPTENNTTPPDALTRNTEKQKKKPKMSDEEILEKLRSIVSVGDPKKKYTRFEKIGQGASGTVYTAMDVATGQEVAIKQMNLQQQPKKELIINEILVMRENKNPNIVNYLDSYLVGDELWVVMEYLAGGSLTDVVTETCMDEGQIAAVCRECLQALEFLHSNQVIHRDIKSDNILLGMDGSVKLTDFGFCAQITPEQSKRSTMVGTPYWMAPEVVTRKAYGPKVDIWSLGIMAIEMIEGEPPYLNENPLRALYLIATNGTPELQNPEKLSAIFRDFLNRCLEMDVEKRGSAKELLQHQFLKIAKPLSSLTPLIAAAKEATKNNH
Method: as §1, §3

TYRO3 = TYRO3 (Homo sapiens, UniProt Q06418)
Method: as §1, §3

EPH-B1 = EPH-B1 (Homo sapiens, UniProt P54762)
Method: as §1, §3

EPH-B2 = EPH-B2 (Homo sapiens, UniProt P29323)
Method: as §1, §3

JAK2 = JAK2 (Homo sapiens, UniProt O60674)
Method: as §1, §3

HIPK3 = HIPK3 (Homo sapiens, UniProt Q9H422)
Method: as §1, §3

YES = YES (Homo sapiens, UniProt P07947)
Method: as §1, §3

FGR = FGR (Homo sapiens, UniProt P09769)
Method: as §1, §3

EPH-A8 = EPH-A8 (Homo sapiens, UniProt P29322)
Method: as §1, §3

SRC = SRC (Homo sapiens, UniProt P12931)
Method: as §1, §3

Measured: inhibition at 5 µM

Chain of FLT4 (P35916 25-1363): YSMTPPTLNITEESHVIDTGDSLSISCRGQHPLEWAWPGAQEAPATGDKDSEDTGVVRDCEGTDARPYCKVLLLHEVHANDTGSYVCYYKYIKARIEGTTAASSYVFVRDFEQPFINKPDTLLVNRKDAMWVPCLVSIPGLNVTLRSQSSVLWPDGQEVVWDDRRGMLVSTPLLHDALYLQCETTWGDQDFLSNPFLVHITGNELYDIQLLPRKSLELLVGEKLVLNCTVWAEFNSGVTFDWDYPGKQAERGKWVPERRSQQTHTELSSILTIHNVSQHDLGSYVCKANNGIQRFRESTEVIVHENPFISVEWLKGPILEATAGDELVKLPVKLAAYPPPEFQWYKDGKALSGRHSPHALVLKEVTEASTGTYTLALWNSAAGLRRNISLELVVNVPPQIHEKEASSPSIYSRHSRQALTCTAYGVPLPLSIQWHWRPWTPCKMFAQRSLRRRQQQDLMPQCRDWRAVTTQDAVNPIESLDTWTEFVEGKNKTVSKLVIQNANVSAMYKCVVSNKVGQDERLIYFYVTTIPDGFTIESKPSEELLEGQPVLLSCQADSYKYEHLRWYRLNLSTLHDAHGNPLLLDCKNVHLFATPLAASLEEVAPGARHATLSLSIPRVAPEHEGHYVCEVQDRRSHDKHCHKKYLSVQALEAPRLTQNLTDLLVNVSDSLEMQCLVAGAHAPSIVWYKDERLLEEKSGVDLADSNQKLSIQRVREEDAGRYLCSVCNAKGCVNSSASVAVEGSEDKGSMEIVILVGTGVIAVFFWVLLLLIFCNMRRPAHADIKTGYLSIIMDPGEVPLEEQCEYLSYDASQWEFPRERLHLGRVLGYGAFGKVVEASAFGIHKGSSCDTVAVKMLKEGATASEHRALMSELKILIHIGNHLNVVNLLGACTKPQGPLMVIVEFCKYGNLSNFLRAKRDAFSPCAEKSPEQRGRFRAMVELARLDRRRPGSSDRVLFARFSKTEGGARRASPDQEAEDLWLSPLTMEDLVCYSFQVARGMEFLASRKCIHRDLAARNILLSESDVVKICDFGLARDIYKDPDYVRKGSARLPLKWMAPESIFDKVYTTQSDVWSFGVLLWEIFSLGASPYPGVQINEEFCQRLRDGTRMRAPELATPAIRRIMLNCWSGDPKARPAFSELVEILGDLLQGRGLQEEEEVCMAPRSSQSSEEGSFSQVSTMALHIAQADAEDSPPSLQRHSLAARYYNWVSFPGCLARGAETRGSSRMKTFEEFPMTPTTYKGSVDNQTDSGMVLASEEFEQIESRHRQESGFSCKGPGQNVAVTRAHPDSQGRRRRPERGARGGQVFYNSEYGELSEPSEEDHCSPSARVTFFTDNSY

CNC(=O)c1cc(Oc2ccc(NC(=O)c3nc(C(F)(F)F)[nH]c3-c3ccc(F)cc3)cc2)ccn1 [Inhibitor I-6, 4-(4-{[5-(4-Fluoro-phenyl)-2-trifluoromethyl-3H-imidazole-4-carbonyl]-amino}-phenoxy)-pyridine-2-carboxylic acid methylamide]
≥ 50%: all assays above
